Experiments:
MMP-2 = test: Substrate phage display with NGS: relative probability (RP) of P3-P1' tetramer clusters; type: biochemical, human; settings: for avg_RP: MMP2 - no binning; for relative probability (RP) of matching tetramer: P3-P1' tetramer matching the MS detected MMP2 cleavage sequence, RP_above_4.5
MMP-9 = test: as above; type: biochemical, human
[1] = MMP2, RP of matching P3-P1' tetramer, common set of MMP2-9 selectome, RP above KL threshold
[2] = RP of matching tetramer, common MMP2-9 selectome
[3] = MMP9, RP of matching P3-P1' tetramer, common set of MMP2-9 selectome
[4] = MMP9, RP of the P3-P1' tetramer matching the MS detected cleavage, RP above 4.7, substrate phage display with NGS
[5] = RP of matching tetramer, common MMP2-9 selectome, RP above KL threshold
[6] = RP according to MMP2, P3-P1' tetramer of unique physiologic MMP2 substrates from MEROPS
[7] = RP of the P3-P1' tetramer, MMP2 substrate phage display/NGS, tetramers of physiologic MEROPS substrates common to MMP2 and MMP9
[8] = RP according to MMP9, P3-P1' tetramer of unique physiologic MMP9 substrates from MEROPS
[9] = RP of the P3-P1' tetramer, MMP9 substrate phage display/NGS, tetramers of physiologic MEROPS substrates common to MMP2 and MMP9
[10] = RP of the P3-P1' tetramer cluster contained in the hexamer, 200 nM MMP-2, 2 h, 37°C, two rounds of selection
[11] = MMP9, RP of the P3-P1' tetramer contained in the hexamer substrate (substrate phage display, NGS)
[12] = average relative probability of the tetramer, redundant tetramers averaged out
[13] = normalized RP of matching tetramer, unique part of MMP2 selectome

Substance | relative probability (RP) (acc.to MMP2) (MMP-2; [7]) | relative probability (RP) (acc.to MMP9) (MMP-9; [9]) | relative probability (RP) (MMP-2; [10]) | relative probability (RP) (MMP-9; [11]) | further results
PSKL |  |  |  |  | avg_RP (MMP-2; average relative probability (RP) of the P3-P1' tetramer, redundant tetramers have been averaged out): 32.2205; relative probability (RP) (acc.to MMP2) (MMP-2; [1]): 32.22; relative probability (RP) of matching tetramer (MMP-2): 32.22; relative probability (RP) (acc.to MMP2) (MMP-2; [2]): 32.22; relative probability (RP) (acc.to MMP9) (MMP-9; [3]): 38.96; relative probability (RP) (MMP-9; [4]): 38.96; relative probability (RP) (acc.to MMP9) (MMP-9; [5]): 38.96
PSLQ | 7.65 | 1.54 |  |  | MMP2 relative probability (RP) (MMP-2; MMP2 tetramers from unique substrates, unrounded values): 7.654; Relative probability (RP) rank (MMP-2; [6]): 6015; relative probability (RP) (MMP-2; [6]): 7.65; corresponding MMP9 relative probability (RP) (MMP-9; MMP2 tetramers from unique substrates, RP of same tetramer for MMP9): 1.544; Relative probability (RP) rank (MMP-9; [8]): 11624; relative probability (RP) (MMP-9; [8]): 1.54
PSNMEG |  |  | 32.3748 | 45.3884 | 
PSPADI |  |  | 23.2522 | 25.0899 | 
PSQM | 27.24 | 37.02 |  |  | 
PSSV | 20.49 | 25.16 |  |  | 
PTGK | 0.04 | 0 |  |  | 
PTGL | 33.11 | 39.89 |  |  | avg_RP (MMP-2; [12]): 33.1098
PTGS | 0.04 | 0.05 |  |  | 
PTGV | 13.32 | 11.14 |  |  | 
PTNL | 31.03 | 36.13 |  |  | 
PTPKAL |  |  | 34.4858 | 48.3581 | 
PVAH |  |  |  |  | relative probability (RP) (acc.to MMP2) (MMP-2; [2]): 24.82; relative probability (RP) (MMP-9; [4]): 24.99; relative probability (RP) (acc.to MMP9) (MMP-9; [5]): 24.99
PVAIPM |  |  | 32.4892 | 44.9732 | 
PVAV |  |  |  |  | relative probability (RP) (acc.to MMP2) (MMP-2; [1]): 27.53; relative probability (RP) of matching tetramer (MMP-2): 27.53; relative probability (RP) (acc.to MMP2) (MMP-2; [2]): 27.53; relative probability (RP) (acc.to MMP9) (MMP-9; [3]): 32.82; relative probability (RP) (MMP-9; [4]): 32.82; relative probability (RP) (acc.to MMP9) (MMP-9; [5]): 32.82
PVEL | 25.47 | 35.1 |  |  | 
PVGMKG |  |  | 32.557 | 44.5811 | 

Substance | relative probability (RP) (acc.to MMP2) (MMP-2; [7]) | relative probability (RP) (acc.to MMP9) (MMP-9; [9]) | relative probability (RP) (MMP-2; [10]) | relative probability (RP) (MMP-9; [11]) | further results
PVLL |  |  |  |  | relative probability (RP) (acc.to MMP2) (MMP-2; [1]): 15.16; relative probability (RP) of matching tetramer (MMP-2): 15.16; relative probability (RP) (acc.to MMP2) (MMP-2; [2]): 15.16; relative probability (RP) (acc.to MMP9) (MMP-9; [3]): 19.22; relative probability (RP) (MMP-9; [4]): 19.22; relative probability (RP) (acc.to MMP9) (MMP-9; [5]): 19.22
PVNMTD |  |  | 30.0312 | 44.4072 | 
PVNV |  |  |  |  | relative probability (RP) (acc.to MMP2) (MMP-2; [2]): 19.63; relative probability (RP) (MMP-9; [4]): 24.66; relative probability (RP) (acc.to MMP9) (MMP-9; [5]): 24.66
PVPV |  |  |  |  | relative probability (RP) (acc.to MMP2) (MMP-2; [1]): 23.04; relative probability (RP) of matching tetramer (MMP-2): 23.04; relative probability (RP) (acc.to MMP2) (MMP-2; [2]): 23.04; relative probability (RP) (acc.to MMP9) (MMP-9; [3]): 29.89; relative probability (RP) (MMP-9; [4]): 29.89; relative probability (RP) (acc.to MMP9) (MMP-9; [5]): 29.89
PVSL | 32.5 | 42.36 |  |  | 
PYEWHS |  |  | 1.984 | 22.8534 | 
PYGIKG |  |  | 28.2788 | 49.5245 | 
PYGL | 33 | 49.41 |  |  | avg_RP (MMP-2; [12]): 32.9966
PYSI |  |  |  |  | relative probability (RP) (acc.to MMP2) (MMP-2; [1]): 23.85; relative probability (RP) of matching tetramer (MMP-2): 23.85; relative probability (RP) (acc.to MMP9) (MMP-9; [3]): 45.53
QAQL |  |  |  |  | relative probability (RP) of matching tetramer (MMP-2): 6.16; relative probability (RP) (acc.to MMP2) (MMP-2; RP of matching tetramer, unique part of MMP2 selectome, RP above KL threshold): 6.16; normalized RP - MMP2 (MMP-2; [13]): 0.1687; relative probability (RP) (acc.to MMP9) (MMP-9; RP of matching tetramer, unique part of MMP2 selectome): 0.06; normalized RP - MMP9 (MMP-9; [13]): 0.001145
QGAI | 1.94 | 0 |  |  | 
QGPAAI |  |  | 32.0972 | 46.1642 | 
QPLEIR |  |  | 19.9123 | 43.9826 | 
QPPLPL |  |  | 35.0814 | 49.0268 | 
QQPQAL |  |  | 34.4508 | 48.457 | 
QQPSRL |  |  | 31.7732 | 39.8157 | 

Source: PMC7932537, “Quantitative profiling of protease specificity” (PLoS Computational Biology, 2021)
